Assay results reported in BindingDB's records for doi:10.7270/Q2Z899VD (Burnham Center For Chemical Genomics, 2010).

Biological target: T1, Nucleotide-binding oligomerization domain-containing protein 1 (Homo sapiens, UniProt Q9Y239)
T1 sequence (Q9Y239 whole entry): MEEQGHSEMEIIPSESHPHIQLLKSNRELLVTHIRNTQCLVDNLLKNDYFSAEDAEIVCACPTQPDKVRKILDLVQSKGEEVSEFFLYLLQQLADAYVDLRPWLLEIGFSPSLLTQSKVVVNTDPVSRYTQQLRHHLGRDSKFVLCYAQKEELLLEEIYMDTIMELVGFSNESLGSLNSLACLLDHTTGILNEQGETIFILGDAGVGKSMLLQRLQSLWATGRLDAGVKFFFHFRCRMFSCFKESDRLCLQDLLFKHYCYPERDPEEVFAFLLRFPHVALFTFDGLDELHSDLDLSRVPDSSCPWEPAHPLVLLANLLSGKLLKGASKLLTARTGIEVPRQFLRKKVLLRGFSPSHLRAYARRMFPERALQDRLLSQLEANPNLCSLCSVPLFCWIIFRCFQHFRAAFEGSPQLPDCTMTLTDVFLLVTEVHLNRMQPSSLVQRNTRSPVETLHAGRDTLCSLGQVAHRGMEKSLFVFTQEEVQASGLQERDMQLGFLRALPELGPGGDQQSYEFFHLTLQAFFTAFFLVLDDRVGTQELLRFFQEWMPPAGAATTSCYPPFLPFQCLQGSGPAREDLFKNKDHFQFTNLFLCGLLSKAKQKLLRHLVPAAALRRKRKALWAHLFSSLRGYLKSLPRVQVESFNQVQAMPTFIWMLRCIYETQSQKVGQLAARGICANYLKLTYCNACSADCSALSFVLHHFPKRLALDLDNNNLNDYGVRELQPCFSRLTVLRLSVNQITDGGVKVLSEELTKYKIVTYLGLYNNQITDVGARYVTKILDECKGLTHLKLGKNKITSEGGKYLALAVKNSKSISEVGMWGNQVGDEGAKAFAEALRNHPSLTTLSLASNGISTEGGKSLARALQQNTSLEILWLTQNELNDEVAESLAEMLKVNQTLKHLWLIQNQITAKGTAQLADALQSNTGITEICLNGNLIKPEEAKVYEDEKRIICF
Assay: NOD1 signaling inhibitors, SAR follow-up, revised (AID 2333)

Compound	IC50 [µM]
Cc1cc(SCC(=O)OCC(=O)C(C#N)c2nc3ccccc3[nH]2)c(C)cc1Br (stereo not drawn)	> 20
CCCOC1=CC(=O)C(C=NNC(=S)Nc2ccccc2[N+](=O)[O-])C=C1 (stereo not drawn) [1-(2-nitrophenyl)-3-[[(E)-(6-oxo-4-propoxy-1-cyclohexa-2,4-dienylidene)methyl]amino]thiourea]	7.73
Cc1cc(Br)ccc1SCC(=O)OCC(=O)C(C#N)c1nc2ccccc2[nH]1 (stereo not drawn) [2-[(4-bromo-2-methylphenyl)thio]acetic acid [3-cyano-3-(1,3-dihydrobenzimidazol-2-ylidene)-2-oxopropyl] ester]	> 20
Cc1ccc(O)c(/N=C/C2=CC(Cc3ccccc3)C=C([N+](=O)[O-])C2=O)c1 (stereo not drawn) [(6E)-6-[[(5-methyl-2-oxidanyl-phenyl)amino]methylidene]-2-nitro-4-(phenylmethyl)cyclohexa-2,4-dien-1-one]	> 20
Cc1ccc(C)c(SCC(=O)OCC(=O)C(C#N)c2nc3ccccc3[nH]2)c1 (stereo not drawn) [MLS000392255]	> 20
N#CC(C(=O)COC(=O)CSc1ccc(Cl)cc1)c1nc2ccccc2[nH]1 (stereo not drawn) [MLS-0208254.0001]	> 20
CCOC1=CC=CC(C=NNC(=S)Nc2ccccc2[N+](=O)[O-])C1=O (stereo not drawn) [MLS-0270696.0001]	8.23
N#CC(C(=O)COC(=O)CSc1ccc2ccccc2c1)c1nc2ccccc2[nH]1 (stereo not drawn) [[3-cyano-3-(1,3-dihydrobenzimidazol-2-ylidene)-2-oxopropyl] 2-naphthalen-2-ylsulfanylacetate]	> 20
